The source of these data is ChEMBL document CHEMBL1201862, “PubChem BioAssay data set” (2004).

Some test systems named below: HCT-116; SK-OV-3; SK-MEL-28; HOP-92; SR; RXF 393; NCI-H23; NCI-H460; KM12; HCC 2998; HL-60; EKVX; SW-620; UACC-62; TK-10; NCI-H522; SK-MEL-2.
Assay in all cases: DTP human tumour cell line panel, 48 h

As usually defined, the GI50 is the concentration that inhibits growth by half.

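Results reflect a 48-hour exposure of cells in 96-well plates to compound at five concentrations. GI50 is the concentration that inhibits growth by half.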 The source made the active and inactive calls. No stated cut-off is given here; in the data, active = GI50 up to about 1.1 µM and inactive = higher. Bounds are passed on as bounds.

Consider `CC1CCCc2c(CC3CC(=O)NC(=O)C3)n[nH]c21` (stereo unspecified), for which the GI50 with HCT-116, in the assay with SK-OV-3, with SK-MEL-28, in the assay on HOP-92, in the assay on SR and in the assay on RXF 393 was > 100 µM (inactive) each time. Also, the GI50 in the assay on NCI-H23, with NCI-H460, in the assay on KM12, with HCC 2998, with HL-60 and with EKVX was > 100 µM (inactive) in each case. Besides, the GI50 with SW-620, with UACC-62, with TK-10 and with NCI-H522 was > 100 µM (inactive) each time.
With `O=C1OC(c2ccccc2)=N/C1=C/NC(CS)C(=O)O` (stereo unspecified), the GI50 with HCT-116, with SK-OV-3, with SK-MEL-28, in the assay on SK-MEL-2, in the assay with HOP-92 and with SR was > 100 µM (inactive) throughout. For the same compound, the GI50 in the assay on RXF 393, in the assay on NCI-H23, in the assay with NCI-H460, in the assay on HCC 2998, in the assay with HL-60 and in the assay on EKVX was > 100 µM (inactive) throughout. Also, the GI50 with SW-620 is > 100 µM (inactive); in the assay on UACC-62 it was > 100 µM (inactive); with TK-10, > 100 µM (inactive); with NCI-H522, 55.8 µM (inactive).
Turning to `CCCCCNC(=O)CCCCCCCCCCCNC(=O)CCCCCCCCCCN1C=CC(=CC=C2C=CC(=O)C=C2)C=C1`, the GI50 in the assay on HCT-116 was > 100 µM (inactive); in the assay on SK-OV-3 it was > 100 µM (inactive); with SK-MEL-28, > 100 µM (inactive); in the assay on HOP-92, 14.7 µM (inactive); in the assay on SR, 6.64 µM (inactive); in the assay on RXF 393 it was > 100 µM (inactive). For the same compound, the GI50 with NCI-H23 was 28.2 µM (inactive); with NCI-H460, > 100 µM (inactive); with KM12, 37.4 µM (inactive); in the assay on HCC 2998, 32.7 µM (inactive); in the assay on HL-60, 2.51 µM (inactive); in the assay with EKVX, > 100 µM (inactive). The GI50 with SW-620 is 54.1 µM (inactive); in the assay on UACC-62 it was 48.4 µM (inactive); in the assay on TK-10, > 10 µM (inactive); in the assay on NCI-H522, 32.4 µM (inactive).
For `O=[N+]([O-])c1ccc(CNC2=NNS(=O)(=O)c3ccccc32)cc1`, the GI50 in the assay with HCT-116 was > 100 µM (inactive); with SK-MEL-2 it was > 100 µM (inactive); with HOP-92, > 100 µM (inactive); in the assay on SR, 31.6 µM (inactive); in the assay with RXF 393, > 100 µM (inactive); in the assay with NCI-H460, > 100 µM (inactive). The GI50 in the assay on KM12 was > 100 µM (inactive); with HCC 2998 it was > 100 µM (inactive); in the assay with HL-60, 79.3 µM (inactive); with EKVX it was > 100 µM (inactive); with SW-620 it was > 100 µM (inactive); with UACC-62 it was 34.6 µM (inactive).
Take `O=C(NC1C(=O)NNC1c1ccccc1Cl)c1ccccc1` (stereo unspecified): the GI50 is > 100 µM (inactive) in the assay on HCT-116; > 100 µM (inactive) in the assay with SK-OV-3; > 100 µM (inactive) in the assay with SK-MEL-28; > 100 µM (inactive) with SK-MEL-2; > 100 µM (inactive) in the assay with HOP-92; 42.2 µM (inactive) in the assay on SR. Moreover, the GI50 with RXF 393, in the assay on NCI-H23, with NCI-H460, with KM12, in the assay with HCC 2998 and with HL-60 was > 100 µM (inactive) in each case. The GI50 with EKVX was > 100 µM (inactive); with SW-620, > 100 µM (inactive); in the assay on UACC-62, > 100 µM (inactive); with TK-10 it was > 100 µM (inactive); with NCI-H522, 91.4 µM (inactive).
In the case of `CN(C)C(=S)/N=c1\ss/c(=N\C(=S)N(C)C)n1C1CCCCC1`, the GI50 with HCT-116, with SK-OV-3, with SK-MEL-28, in the assay with SK-MEL-2, with SR and in the assay on RXF 393 was > 100 µM (inactive) throughout. In addition, the GI50 with NCI-H23 is 63.2 µM (inactive); with NCI-H460, 0.515 µM (active); in the assay with KM12, > 100 µM (inactive); with HCC 2998, > 100 µM (inactive); in the assay with HL-60, 69 µM (inactive); with EKVX, > 100 µM (inactive). Besides, the GI50 is > 100 µM (inactive) in the assay on SW-620, 1.06 µM (active) with UACC-62, > 100 µM (inactive) in the assay with TK-10 and 25.5 µM (inactive) in the assay with NCI-H522.
Consider `COC(=O)c1c(C)cc2c(c1O)C1(O)C(=O)c3cc4c(c(O)c3C(=O)C1(OC)C(O)C2)C(=O)C=C(NC1OC(C)C(OC)C(O)C1OC)C4=O` (stereo unspecified), for which the GI50 with HCT-116 was 0.0378 µM (active); in the assay on SK-OV-3 it was 0.298 µM (active); with SK-MEL-2, 0.0284 µM (active); in the assay on HOP-92, 0.26 µM (active); in the assay with SR it was 0.0405 µM (active); in the assay on RXF 393 it was 0.0161 µM (active). Also, the GI50 was 0.0152 µM (active) with NCI-H23; 0.0986 µM (active) with NCI-H460; 0.129 µM (active) with KM12; 0.138 µM (active) in the assay with HCC 2998; 0.0194 µM (active) in the assay on HL-60; 0.241 µM (active) with EKVX. For the same compound, the concentration for 50% growth inhibition (GI50) in the assay on SW-620 is 0.0416 µM (active); with UACC-62, 0.0139 µM (active); with TK-10, 0.114 µM (active); in the assay with NCI-H522 it was 0.0552 µM (active).
Regarding `O=C(O)Cc1ccccc1CCc1ccccc1Cl`, the GI50 with HCT-116 was > 100 µM (inactive); in the assay with SK-OV-3, > 100 µM (inactive); with SK-MEL-28 it was > 100 µM (inactive); in the assay on SK-MEL-2, 30.8 µM (inactive); in the assay with HOP-92 it was > 100 µM (inactive); with SR, > 100 µM (inactive). Also, the GI50 in the assay on RXF 393, in the assay on NCI-H23, in the assay with NCI-H460, with KM12, in the assay with HCC 2998 and in the assay on HL-60 was > 100 µM (inactive) each time. For the same compound, the GI50 in the assay with EKVX is 96.4 µM (inactive); in the assay on SW-620, > 100 µM (inactive); with TK-10, > 100 µM (inactive); with NCI-H522, > 100 µM (inactive).
For `O/N=C1/CCCC/C1=C/C=C/c1ccccc1`, the GI50 is 15.7 µM (inactive) in the assay on HCT-116; 39 µM (inactive) in the assay with SK-OV-3; 3.42 µM (inactive) with SK-MEL-28; 17.7 µM (inactive) in the assay with SK-MEL-2; 15.5 µM (inactive) in the assay with HOP-92; 5.71 µM (inactive) in the assay on SR. For the same compound, the GI50 is 19.4 µM (inactive) in the assay with RXF 393; 22.8 µM (inactive) in the assay with NCI-H23; 22.7 µM (inactive) in the assay on NCI-H460; 20.1 µM (inactive) in the assay with KM12; 22.1 µM (inactive) in the assay on HCC 2998; 13.1 µM (inactive) in the assay with HL-60. Moreover, the GI50 with SW-620 was 26.5 µM (inactive); in the assay with UACC-62, 18.6 µM (inactive); in the assay with TK-10, 29 µM (inactive); in the assay with NCI-H522 it was 19.1 µM (inactive).
